Columns and labels:
[1] = tested on: primary cultures of mouse cortical neurons; assay: Mitochondrial respiration (Seahorse XF24, oxygen consumption rate); assay type: cell-based; details: 0.1 μM, FCCP 2 μM
Description: The effects of E, Q and E+Q on key parameters of mitochondrial respiration in primary cultures of mouse cortical neurons were measured using a Seahorse Bioscience XF24 Extracellular Flux Analyzer XF24 instrument. Oxygen consumption rate (OCR) in fmol/cell were normalized by counting viable cortical neurons at the end of each experiment. A seeding density of 80,000 neurons/well was sufficient to obtain a measurable basal OCR (4-6 fmol/min/cell) permitting both OCR induction and inhibition to be assessed. Mitochondrial function in cortical neurons was measured by the sequential injection of oligomycin (2 μM), FCCP (2 μM), rotenone (300 nM) and antimycin (5 μM) to control and OGD-exposed cultures treated with various concentrations of E, Q or E+Q (0.1 μM).

[2] = tested on: primary mouse cortical cultures; assay: Confocal imaging of calcium transients and mitochondrial membrane potential; assay type: cell-based; details: for number of neurons displaying elevated [Ca2+]c / oscillations: 3 μg/ml (~10 μM); for number / frequency of [Ca2+]c oscillations in cortical neurons: Q 3 μg/ml added after pretreatment with E 3 μg/ml
Description: Embryonic day 16 timed pregnant CD1 out-bred mice were obtained from Charles River Laboratories (Charles River; QC, Canada). Primary cortical neuron cultures were prepared from cerebral cortices of wild type (WT) CD1 mouse embryos as described previously, with the following modifications. Pregnant CD1 females were heavily anaesthetized with isoflurane vapor (Benson Medical Industries, Inc., Markham, ON) before being euthanized by decapitation. The embryonic day 16 (E16) fetuses were immediately removed from the sacrificed pregnant females by cesarean section and placed in ice-cold Hank's Balanced Salt Solution (HBSS) (GIBCO; Invitrogen, Amarillo, Calif.). The meninges were removed from the brains and cortices were isolated under a dissecting microscope. The cortices from each embryo were placed in individual wells of a 24-well plate (Corning; Lowell, Mass.), containing 1 ml of ice-cold PBS (GIBCO; […] Under sterile conditions, the tissue was briefly minced, transferred to 15 ml sterile conical tubes (Corning; Lowell, Mass.) and centrifuged at 350×g for 3 min at room temperature. The dissecting solution was discarded and the cortical neurons were then dissociated trituration with fire-polished glass pipettes followed by incubating in 1 ml of 0.1% trypsin solution (0.1% w/v trypsin (Invitrogen, Amarillo, Calif.) in PBS with 1 mM Mg^2+ and 13 mM glucose) at 37° C. for 15 min. The trypsinization was inhibited by the addition of 0.5 ml of trypsin inhibitor solution that also contained DNase I (0.06% w/v trypsin inhibitor (Invitrogen; Amarillo, Calif.) and 0.01% DNase I (Invitrogen; […] The tubes were mixed briefly and the cells were centrifuged at 350×g for 3 min at room temperature. The trypsin and inhibitor solutions were discarded and each cell pellet was suspended in 1 ml of cortical neuron plating medium (Neurobasal medium (Invitrogen, Amarillo, Calif.) with 10% fetal bovine serum (GIBCO; Invitrogen; Amarillo, Calif.), 2% B27 supplement, 1 mM L-glutamine, and 1% Gentamycin (Invitrogen; […] Cortical neurons were plated in 96-well plates (Corning; Lowell, Mass.) that were pre-coated with poly-D-lysine (PDL; Sigma-Aldrich; Oakville, ON) according to the procedure described by the manufacturer. Briefly, plates were coated immediately before use with 100 μg/ml PDL for 5-10 min (50 μl/well), washed three times with tissue-culture grade water and left to dry for 2 h before cells were introduced. Cortical neurons were plated at a concentration of 1×10^6 cells/ml (100 µl/well) and medium was completely changed the day after plating to serum-free cortical neuron medium (Neurobasal medium with 2% B27 supplement, 5 mM HEPES, 0.5 mM L-glutamine, and 20 μg/ml Gentamycin), which was replaced every 3 days in culture. Cultures were maintained in a humidified, 37° C. incubator with 5% CO2. Experiments were performed on the eighth day in vitro (DIV10). For measurements of mitochondrial membrane potential (ΔΨm), cells were loaded with 25 nM tetrannethylrhodamine methyl ester (TMRM) for 30 min at room temperature and the dye was present during the experiment. TMRM is used in the redistribution mode to assess ΔΨm with a reduction in TMRM fluorescence indicating mitochondrial depolarization. Neurons were loaded for 30 min at room temperature with X-rhod-1 AM (0.5 μM) and Fluo-3 AM (0.5 μM) (Molecular Probes, Invitrogen) prior to imaging in HEPES-buffered salt solution (HBSS) composed of (mM): 156 NaCl, 3 KCl, 2 MgSO4, 1.25 KH2PO4, 2 CaCl2, 10 glucose and 10 HEPES, pH adjusted to 7.35 with NaOH. Confocal images were obtained using a 510 CLSM (Zeiss, Thornwood, N.Y.) equipped with a META detection system and a […] oil-immersion objective. The 488 nm Argon laser line was used to excite fluo-3 fluorescence, which was measured using a bandpass filter from 505 to 550 nm. Illumination intensity was kept to a minimum (at 0.1-0.2% of laser output) to avoid phototoxicity and the pinhole was set to give an optical slice of 2 μm. […]

[3] = ten minutes after addition, fluo-3
[4] = sequential addition of 0.3 and 1 μM

| SMILES | loss of spare respiratory capacity (SRC) after OGD [1] | number of neurons displaying [Ca2+]c oscillations ([2]; 1 μg/ml (~3 μM), ten minutes after addition, fluo-3) | number of neurons displaying [Ca2+]c oscillations ([2]; 1 μg/ml (~3 μM), ten minutes after addition, fluo-3, listed as quercetin) | number of neurons displaying elevated [Ca2+]c / oscillations [2, 3] | number of neurons displaying elevated [Ca2+]c / oscillations ([2]; ten minutes after addition, fluo-3, listed as quercetin) | frequency of neuronal [Ca2+]c oscillations ([2]; 1 and 3 μg/ml (~3-10 μM), concentration-dependent) | mitochondrial membrane potential (TMRM) ([2]; 1 and 3 μg/ml (~3 and 10 μM)) | [Ca2+]m (mitochondrial) oscillations, x-rhod-1 ([2]; Q 3 μg/ml added after E 3 μg/ml) | number of neurons displaying [Ca2+]c oscillations ([2]; Q 3 μg/ml added after E 3 μg/ml, ten minutes later) | number of neurons displaying [Ca2+]c oscillations ([2]; Q 3 μg/ml added after E 3 μg/ml, ten minutes later, listed as quercetin) | number / frequency of [Ca2+]c oscillations in cortical neurons [2] | [Ca2+]c oscillations (fluo-4) [2, 4] | basal [Ca2+]c [2, 4] | mitochondrial membrane potential (TMRM) [2, 4] | [Ca2+]c oscillations in a cortical neuron ([2]; 3 μg/ml (~10 μM) alone) | [Ca2+]m (mitochondrial) oscillations, x-rhod-1 ([2]; 3 μg/ml (~10 μM) alone) | [Ca2+]c oscillations in a cortical neuron ([2]; 3 μg/ml (~10 μM) alone, listed as epicatechin) | number of neurons displaying elevated [Ca2+]c / oscillations ([2]; ten minutes after addition, fluo-3, listed as epicatechin) |
| --- | --- | --- | --- | --- | --- | --- | --- | --- | --- | --- | --- | --- | --- | --- | --- | --- | --- | --- |
| O=c1c(O)c(-c2ccc(O)c(O)c2)oc2cc(O)cc(O)c12 [Q] | only partially reversed | small increase | increased | further elevation | increased | increased the frequency | modestly elevated | induction | did increase | increased | supra-additive increase | concentration dependent stimulation | moderate rise | elevation |  |  |  |  |
| Oc1cc(O)c2c(c1)O[C@H](c1ccc(O)c(O)c1)[C@H](O)C2 [E, (2R,3R)-2-(3,4-dihydroxyphenyl)-3,4-dihydro-2H-chromene-3,5,7-triol] | only partially reversed |  |  | no change |  |  |  |  |  |  | enhanced the frequency |  |  |  | did not trigger | did not trigger | did not increase | did not increase |

Reference: patent publication US20170027902A1, “Use of a Composition Comprising a Flavonol, A Flavonoid, and a Fatty Acid in the Treatment of Oxidative Injuries Due to Mitochondrial Dysfunction” (priority 2014, published 2017)
